{
  "source": "patent US20200397894A1",
  "about": "“COMPOSITIONS AND METHODS FOR TREATING CANCER” (University of Virginia Patent Foundation, priority 2016, published 2020)",
  "key": {"Cal27 or FaDu cells": {"test_system": "Cal27 or FaDu cells", "experiment": "FACS analysis of HNSCC cells (line not given)", "assay_type": "cell-based, human", "procedure": "The effect of pevonedistat treatment or CDT2, geminin, or EMI1 knockdown on the cell cycle (and induction of DNA rereplication) was assessed by flow cytometry with propidium iodide (PI) staining. […] Cells were collected, washed with PBS, and resuspended in ethanol (75%). Cells were subsequently treated with 20 μg of DNase-free RNase and stained with PI following the manufacturer's protocol. FACSCAN™ (Becton, Dickinson and Company, Franklin Lakes, N.J., United States of America) was used to analyze the samples and G0-G1, S, and G2-M fractions were segmented. Subsequent analysis using FLOWJO® (FLOWJO, LLC, Ashland, Oreg., United States of America) and ModFit (Verity Software House, Topsham, Me., United States of America) software was used to determine apoptotic and re-replicating fractions. Where indicated, Cal27 and FaDu cells were treated with pevonedistat for 48 hours and pulsed with BrdU (10 nM) for 1 hour in the dark prior to harvesting. […] Sampled were analyzed on a FACSCAN™ (Becton, Dickinson and Company, Franklin Lakes, N.J., United States of America), and different fractions of BrdU positive cells were determined using FLOWJO® (FLOWJO, LLC, Ashland, Oreg., United States of America) and ModFit (Verity Software House, Topsham, Me., United States of America) software."}, "[1]": {"test_system": "hTERT-transformed keratonocytes (OKF6-TERT2)", "experiment": "Rereplication by FACS in control keratinocytes", "assay_type": "cell-based, human", "procedure": "The effect of pevonedistat treatment or CDT2, geminin, or EMI1 knockdown on the cell cycle (and induction of DNA rereplication) was assessed by flow cytometry with propidium iodide (PI) staining. Cells were harvested at 72 or 96 hours post-treatment with pevonedistat or post-transfection, respectively. Cells were collected, washed with PBS, and resuspended in ethanol (75%). Cells were subsequently treated with 20 μg of DNase-free RNase and stained with PI following the manufacturer's protocol. FACSCAN™ (Becton, Dickinson and Company, Franklin Lakes, N.J., United States of America) was used to analyze the samples and G0-G1, S, and G2-M fractions were segmented. Subsequent analysis using FLOWJO® (FLOWJO, LLC, Ashland, Oreg., United States of America) and ModFit (Verity Software House, Topsham, Me., United States of America) software was used to determine apoptotic and re-replicating fractions. Where indicated, Cal27 and FaDu cells were treated with pevonedistat for 48 hours and pulsed with BrdU (10 nM) for 1 hour in the dark prior to harvesting. […] Sampled were analyzed on a FACSCAN™ (Becton, Dickinson and Company, Franklin Lakes, N.J., United States of America), and different fractions of BrdU positive cells were determined using FLOWJO® (FLOWJO, LLC, Ashland, Oreg., United States of America) and ModFit (Verity Software House, Topsham, Me., United States of America) software."}, "Cal27 xenografts": {"test_system": "Cal27 xenografts", "experiment": "HNSCC flank xenograft in nude mice", "assay_type": "in vivo", "procedure": "The animal studies were conducted in accordance with the guidelines established by the University of Virginia Animal Care and Use Committee (ACUC). The effect of pevonedistat on tumor growth was tested in a flank HNSCC xenograft model. 4-5 weeks old Foxn1^nu athymic female nude immunodeficient mice (20-25 g body weight; Harlan Laboratories, now Envigo, Indianapolis, Ind., United States of America) were used. Pevonedistat was prepared in 10% DMSO containing PBS and filtered before use. 5×10^6 Cal27 cells (suspended in 200 μl sterile PBS) were inoculated subcutaneously in both flanks of nude mice (8 mice per group). When the tumor size reached 100 mm^3 (10 days post-inoculation), mice were randomized and were treated with pevonedistat (20 mg/kg), or with control vehicle (DMSO), administered intraperitoneally on a regimen of 5 days on/5 days off for 2 cycles (Tardat et al., 2010). Tumors from a third group of mice were exposed to 1Gy irradiation (IR) daily, 5 days/week for 3 weeks, and a fourth group of mice received both pevonedistat and IR treatments. Tumor irradiation was performed at the University of Virginia X-Ray facility, and only the tumors on both flanks were irradiated while the rest of animal body was shielded. For combination treatment, pevonedistat was given 2 hours prior to radiation exposure with the same schedule as for the individual treatments. Tumor growth was monitored every other day using an electronic caliper, for 3 weeks post-treatment and average of tumor volumes were calculated using the formula (L×W^2)/2). The results are represented as the mean tumor volumes±s.e.m, and p<0.05 was considered significant."}, "Trl46 HNSCC cells": {"test_system": "Trl46 HNSCC cells", "conditions": "Trl46, 1 μM pevonedistat; cited from earlier work"}},
  "data": [
    {"compound": "NS(=O)(=O)OCC1CC(n2ccc3c(NC4CCc5ccccc54)ncnc32)CC1O", "note": "[pevonedistat, ((1S,2S,4R)-4-(4-((1S)-2,3-Dihydro-H-inden-1-ylamino)-7H-pyrrolo(2,3-d)pyrimidin-7-yl)-2-hydroxycyclopentyl)methyl sulphamate]", "values": [
      {"measurement": "cells exhibiting sub-G1 DNA content", "setting": "Cal27 or FaDu cells; 72 hours post-treatment", "value": "5-10%"},
      {"measurement": "concentration at which rereplication was also observed", "setting": "Cal27 or FaDu cells; as early as 24 hours following treatment", "value": 40, "unit": "nM"},
      {"measurement": "DNA rereplication", "setting": "[1]", "value": "not observed"},
      {"measurement": "growth of Cal27 xenografts", "setting": "Cal27 xenografts; 20 mg/kg IP, p=0.0211", "value": "significantly suppressed"},
      {"measurement": "growth of Cal27 xenografts, combined treatment with IR", "setting": "Cal27 xenografts; 20 mg/kg pevonedistat plus 1 Gy IR daily, p=2×10^−3 vs. control", "value": "more suppression than either treatment alone"},
      {"measurement": "tolerability", "setting": "Cal27 xenografts; nude mice, 20 mg/kg IP, 5 days on/5 days off, two cycles", "value": "well tolerated"},
      {"measurement": "effect on mouse weight", "setting": "Cal27 xenografts; weighed once a week during the entire experiment", "value": "no significant effect"},
      {"measurement": "apoptosis (% of cells)", "setting": "Trl46 HNSCC cells", "value": 65, "unit": "%"}
    ]}
  ]
}
